Values quoted from earlier work as cited in article PMC9851200, “Multiparameter phenotypic screening for endogenous TFEB and TFE3 translocation identifies novel chemical series modulating lysosome function” (Autophagy, 2022).

Columns and labels:
Parameters in all cases: method as in original PKIS2 published data
[1] = target: kinases (KINOMEscan panel) (Homo sapiens, UniProt O75716); settings: kinase STK16; Published KINOMEscan; ref original PKIS2 published data; cited from earlier work
[2] = target: kinases (KINOMEscan panel) (Homo sapiens, UniProt O94921); settings: Published KINOMEscan; ref original PKIS2 published data; cited from earlier work
[3] = target: kinases (KINOMEscan panel) (Homo sapiens, UniProt P11309); settings: Published KINOMEscan; ref original PKIS2 published data; cited from earlier work
[4] = target: kinases (KINOMEscan panel) (Homo sapiens, UniProt P57059); settings: kinase SIK1; Published KINOMEscan; ref original PKIS2 published data; cited from earlier work
[5] = target: kinases (KINOMEscan panel) (Homo sapiens, UniProt Q00532); settings: CDKL1; Published KINOMEscan; ref original PKIS2 published data; cited from earlier work
[6] = target: T1, kinases (KINOMEscan panel) (Homo sapiens, UniProt Q09013); settings: kinase DMPK; Published KINOMEscan; ref original PKIS2 published data; cited from earlier work
T1 sequence (Q09013 1-629): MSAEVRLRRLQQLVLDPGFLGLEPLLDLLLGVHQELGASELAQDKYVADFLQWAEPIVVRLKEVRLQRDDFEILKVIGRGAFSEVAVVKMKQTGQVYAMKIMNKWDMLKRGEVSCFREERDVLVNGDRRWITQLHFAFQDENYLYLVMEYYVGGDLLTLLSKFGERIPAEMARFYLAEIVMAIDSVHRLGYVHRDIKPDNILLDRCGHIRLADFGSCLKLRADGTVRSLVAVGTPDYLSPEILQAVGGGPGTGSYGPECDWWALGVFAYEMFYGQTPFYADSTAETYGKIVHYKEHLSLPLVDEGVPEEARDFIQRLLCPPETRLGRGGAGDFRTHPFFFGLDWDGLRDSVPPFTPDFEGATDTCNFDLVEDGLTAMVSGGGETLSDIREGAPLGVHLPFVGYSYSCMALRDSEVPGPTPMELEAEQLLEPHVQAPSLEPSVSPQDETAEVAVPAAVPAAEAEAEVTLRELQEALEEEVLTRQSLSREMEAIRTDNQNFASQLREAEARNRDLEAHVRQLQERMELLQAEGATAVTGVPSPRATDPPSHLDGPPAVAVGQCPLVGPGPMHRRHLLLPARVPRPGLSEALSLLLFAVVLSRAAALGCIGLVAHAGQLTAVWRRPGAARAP

[7] = target: kinases (KINOMEscan panel) (Homo sapiens, UniProt Q13233); settings: MAP3K1; Published KINOMEscan; ref original PKIS2 published data; cited from earlier work
[8] = target: kinases (KINOMEscan panel) (Homo sapiens, UniProt Q15746); settings: kinase MYLK; Published KINOMEscan; ref original PKIS2 published data; cited from earlier work
[9] = target: T2, kinases (KINOMEscan panel) (Homo sapiens, UniProt Q8NFD2); settings: ANKK1; Published KINOMEscan; ref original PKIS2 published data; cited from earlier work
T2 sequence (Q8NFD2 1-765): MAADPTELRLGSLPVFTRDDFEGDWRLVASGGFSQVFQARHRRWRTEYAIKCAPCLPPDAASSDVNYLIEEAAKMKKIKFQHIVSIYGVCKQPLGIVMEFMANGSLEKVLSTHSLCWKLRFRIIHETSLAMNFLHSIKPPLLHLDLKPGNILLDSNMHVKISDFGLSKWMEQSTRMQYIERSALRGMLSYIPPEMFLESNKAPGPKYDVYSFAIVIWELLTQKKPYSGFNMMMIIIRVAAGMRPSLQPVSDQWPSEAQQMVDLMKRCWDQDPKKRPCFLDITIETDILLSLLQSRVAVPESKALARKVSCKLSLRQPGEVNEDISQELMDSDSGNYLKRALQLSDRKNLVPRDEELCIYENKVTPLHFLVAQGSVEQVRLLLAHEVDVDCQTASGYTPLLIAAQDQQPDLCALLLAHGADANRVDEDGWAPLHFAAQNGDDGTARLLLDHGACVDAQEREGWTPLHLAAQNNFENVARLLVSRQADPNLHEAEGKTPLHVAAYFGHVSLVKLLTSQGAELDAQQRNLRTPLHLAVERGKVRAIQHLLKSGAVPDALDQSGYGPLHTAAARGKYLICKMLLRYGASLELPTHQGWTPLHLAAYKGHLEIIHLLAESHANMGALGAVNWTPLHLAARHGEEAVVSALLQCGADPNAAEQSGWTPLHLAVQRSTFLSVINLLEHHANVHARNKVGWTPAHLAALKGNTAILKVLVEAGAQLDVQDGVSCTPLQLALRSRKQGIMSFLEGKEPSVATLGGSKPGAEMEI

[10] = target: kinases (KINOMEscan panel) (Homo sapiens, UniProt Q8NI60); settings: COQ8A; Published KINOMEscan; ref original PKIS2 published data; cited from earlier work
[11] = target: kinases (KINOMEscan panel) (Homo sapiens, UniProt Q9P0L2); settings: Published KINOMEscan; ref original PKIS2 published data; cited from earlier work
Chain of kinases (KINOMEscan panel) (Homo sapiens, UniProt Q9P0L2) (Q9P0L2 whole entry): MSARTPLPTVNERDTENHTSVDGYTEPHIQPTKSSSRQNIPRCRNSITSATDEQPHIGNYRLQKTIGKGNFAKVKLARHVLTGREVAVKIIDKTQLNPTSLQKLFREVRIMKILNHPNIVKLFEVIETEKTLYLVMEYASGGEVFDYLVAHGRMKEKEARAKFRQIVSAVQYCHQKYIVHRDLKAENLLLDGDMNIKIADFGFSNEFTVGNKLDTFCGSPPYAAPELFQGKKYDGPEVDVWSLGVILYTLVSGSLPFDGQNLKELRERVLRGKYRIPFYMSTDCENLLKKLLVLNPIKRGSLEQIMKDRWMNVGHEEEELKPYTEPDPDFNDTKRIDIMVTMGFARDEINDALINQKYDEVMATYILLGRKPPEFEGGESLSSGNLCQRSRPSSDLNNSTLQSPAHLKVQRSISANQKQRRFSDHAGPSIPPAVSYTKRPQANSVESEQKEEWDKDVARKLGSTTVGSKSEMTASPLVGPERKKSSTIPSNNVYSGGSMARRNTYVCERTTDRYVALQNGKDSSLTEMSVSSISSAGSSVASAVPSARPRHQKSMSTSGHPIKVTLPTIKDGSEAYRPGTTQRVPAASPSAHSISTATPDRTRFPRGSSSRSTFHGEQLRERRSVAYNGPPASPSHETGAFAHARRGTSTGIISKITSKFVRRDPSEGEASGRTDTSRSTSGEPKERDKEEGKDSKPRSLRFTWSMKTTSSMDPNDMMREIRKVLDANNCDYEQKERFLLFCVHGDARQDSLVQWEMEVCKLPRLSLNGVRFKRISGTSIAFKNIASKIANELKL

Chain of kinases (KINOMEscan panel) (Homo sapiens, UniProt O94921) (O94921 whole entry): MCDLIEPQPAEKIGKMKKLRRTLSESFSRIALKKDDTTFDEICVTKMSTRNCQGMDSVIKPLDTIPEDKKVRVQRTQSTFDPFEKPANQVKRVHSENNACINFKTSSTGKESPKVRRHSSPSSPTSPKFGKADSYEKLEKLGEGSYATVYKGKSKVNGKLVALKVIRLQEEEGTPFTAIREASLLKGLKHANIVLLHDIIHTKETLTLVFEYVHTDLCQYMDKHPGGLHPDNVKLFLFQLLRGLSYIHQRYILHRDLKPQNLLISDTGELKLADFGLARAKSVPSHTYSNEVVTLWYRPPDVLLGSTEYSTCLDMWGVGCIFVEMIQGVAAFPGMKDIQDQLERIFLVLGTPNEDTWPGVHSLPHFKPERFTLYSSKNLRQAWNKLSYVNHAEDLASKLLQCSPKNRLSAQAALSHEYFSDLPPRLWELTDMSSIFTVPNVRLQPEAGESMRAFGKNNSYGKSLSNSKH
Chain of kinases (KINOMEscan panel) (Homo sapiens, UniProt Q15746) (Q15746 whole entry): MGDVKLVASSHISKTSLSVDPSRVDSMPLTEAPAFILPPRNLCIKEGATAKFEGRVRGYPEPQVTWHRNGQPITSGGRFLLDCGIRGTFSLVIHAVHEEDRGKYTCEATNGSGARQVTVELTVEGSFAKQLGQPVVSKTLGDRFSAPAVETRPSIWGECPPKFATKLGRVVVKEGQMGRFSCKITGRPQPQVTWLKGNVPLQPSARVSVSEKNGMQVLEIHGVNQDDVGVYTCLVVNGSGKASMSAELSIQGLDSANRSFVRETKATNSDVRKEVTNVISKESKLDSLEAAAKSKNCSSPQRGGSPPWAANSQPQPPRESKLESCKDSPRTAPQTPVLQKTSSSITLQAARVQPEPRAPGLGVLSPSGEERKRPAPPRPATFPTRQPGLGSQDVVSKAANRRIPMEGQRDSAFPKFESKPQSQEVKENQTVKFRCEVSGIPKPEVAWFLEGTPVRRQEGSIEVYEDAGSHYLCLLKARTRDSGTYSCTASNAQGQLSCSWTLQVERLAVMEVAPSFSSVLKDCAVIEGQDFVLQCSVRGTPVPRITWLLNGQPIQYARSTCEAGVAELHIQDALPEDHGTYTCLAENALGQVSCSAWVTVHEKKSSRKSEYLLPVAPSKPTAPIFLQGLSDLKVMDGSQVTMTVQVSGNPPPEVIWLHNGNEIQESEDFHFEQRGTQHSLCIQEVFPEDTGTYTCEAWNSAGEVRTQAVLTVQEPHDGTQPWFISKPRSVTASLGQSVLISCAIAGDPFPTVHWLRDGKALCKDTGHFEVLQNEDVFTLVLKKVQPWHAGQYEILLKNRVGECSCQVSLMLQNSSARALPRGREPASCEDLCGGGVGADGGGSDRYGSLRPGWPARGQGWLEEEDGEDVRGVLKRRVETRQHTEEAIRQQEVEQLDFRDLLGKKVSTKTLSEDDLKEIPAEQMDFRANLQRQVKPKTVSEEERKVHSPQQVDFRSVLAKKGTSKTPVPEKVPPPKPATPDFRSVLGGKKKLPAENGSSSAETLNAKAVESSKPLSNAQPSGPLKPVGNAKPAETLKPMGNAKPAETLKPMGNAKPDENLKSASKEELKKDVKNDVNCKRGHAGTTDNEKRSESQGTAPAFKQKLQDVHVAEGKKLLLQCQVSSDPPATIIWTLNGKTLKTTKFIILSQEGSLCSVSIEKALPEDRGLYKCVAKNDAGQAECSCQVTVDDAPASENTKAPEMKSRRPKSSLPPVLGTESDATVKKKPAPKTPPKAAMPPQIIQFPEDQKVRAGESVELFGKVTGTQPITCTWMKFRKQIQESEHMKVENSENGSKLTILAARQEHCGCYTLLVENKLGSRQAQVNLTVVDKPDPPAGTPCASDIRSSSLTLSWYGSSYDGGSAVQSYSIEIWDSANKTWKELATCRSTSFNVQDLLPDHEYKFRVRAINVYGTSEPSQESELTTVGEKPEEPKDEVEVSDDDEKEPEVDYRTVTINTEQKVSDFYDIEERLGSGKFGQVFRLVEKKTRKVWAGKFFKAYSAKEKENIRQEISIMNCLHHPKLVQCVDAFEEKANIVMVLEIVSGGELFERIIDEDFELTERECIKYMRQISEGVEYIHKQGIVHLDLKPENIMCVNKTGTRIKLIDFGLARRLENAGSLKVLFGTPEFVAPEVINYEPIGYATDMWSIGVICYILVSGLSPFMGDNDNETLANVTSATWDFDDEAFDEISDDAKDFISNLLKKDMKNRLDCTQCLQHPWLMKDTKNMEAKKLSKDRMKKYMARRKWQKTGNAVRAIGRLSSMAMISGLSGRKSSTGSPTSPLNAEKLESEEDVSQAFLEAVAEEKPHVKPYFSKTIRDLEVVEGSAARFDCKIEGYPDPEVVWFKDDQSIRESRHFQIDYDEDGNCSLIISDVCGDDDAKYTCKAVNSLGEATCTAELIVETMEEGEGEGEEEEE
Chain of kinases (KINOMEscan panel) (Homo sapiens, UniProt Q8NI60) (Q8NI60 163-647): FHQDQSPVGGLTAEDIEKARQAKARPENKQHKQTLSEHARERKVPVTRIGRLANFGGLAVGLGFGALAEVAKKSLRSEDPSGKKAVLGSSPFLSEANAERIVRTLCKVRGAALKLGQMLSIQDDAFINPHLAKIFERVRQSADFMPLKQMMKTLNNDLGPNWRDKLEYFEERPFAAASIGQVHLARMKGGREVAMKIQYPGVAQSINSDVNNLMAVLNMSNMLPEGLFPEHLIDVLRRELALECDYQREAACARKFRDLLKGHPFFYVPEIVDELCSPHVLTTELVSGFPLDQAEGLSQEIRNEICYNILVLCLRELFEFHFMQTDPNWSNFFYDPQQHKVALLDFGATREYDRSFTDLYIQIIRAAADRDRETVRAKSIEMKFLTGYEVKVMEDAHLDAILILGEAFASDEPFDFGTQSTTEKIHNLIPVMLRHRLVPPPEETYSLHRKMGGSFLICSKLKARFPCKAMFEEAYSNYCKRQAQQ
Chain of kinases (KINOMEscan panel) (Homo sapiens, UniProt O75716) (O75716 whole entry): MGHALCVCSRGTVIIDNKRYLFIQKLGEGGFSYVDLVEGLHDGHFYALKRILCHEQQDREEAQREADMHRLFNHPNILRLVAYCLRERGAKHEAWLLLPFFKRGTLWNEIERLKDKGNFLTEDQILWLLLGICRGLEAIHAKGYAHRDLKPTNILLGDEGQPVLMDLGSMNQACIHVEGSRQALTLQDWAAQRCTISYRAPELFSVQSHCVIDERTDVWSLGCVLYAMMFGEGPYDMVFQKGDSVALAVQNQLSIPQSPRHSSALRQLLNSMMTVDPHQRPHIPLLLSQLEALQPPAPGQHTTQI
Chain of kinases (KINOMEscan panel) (Homo sapiens, UniProt P57059) (P57059 whole entry): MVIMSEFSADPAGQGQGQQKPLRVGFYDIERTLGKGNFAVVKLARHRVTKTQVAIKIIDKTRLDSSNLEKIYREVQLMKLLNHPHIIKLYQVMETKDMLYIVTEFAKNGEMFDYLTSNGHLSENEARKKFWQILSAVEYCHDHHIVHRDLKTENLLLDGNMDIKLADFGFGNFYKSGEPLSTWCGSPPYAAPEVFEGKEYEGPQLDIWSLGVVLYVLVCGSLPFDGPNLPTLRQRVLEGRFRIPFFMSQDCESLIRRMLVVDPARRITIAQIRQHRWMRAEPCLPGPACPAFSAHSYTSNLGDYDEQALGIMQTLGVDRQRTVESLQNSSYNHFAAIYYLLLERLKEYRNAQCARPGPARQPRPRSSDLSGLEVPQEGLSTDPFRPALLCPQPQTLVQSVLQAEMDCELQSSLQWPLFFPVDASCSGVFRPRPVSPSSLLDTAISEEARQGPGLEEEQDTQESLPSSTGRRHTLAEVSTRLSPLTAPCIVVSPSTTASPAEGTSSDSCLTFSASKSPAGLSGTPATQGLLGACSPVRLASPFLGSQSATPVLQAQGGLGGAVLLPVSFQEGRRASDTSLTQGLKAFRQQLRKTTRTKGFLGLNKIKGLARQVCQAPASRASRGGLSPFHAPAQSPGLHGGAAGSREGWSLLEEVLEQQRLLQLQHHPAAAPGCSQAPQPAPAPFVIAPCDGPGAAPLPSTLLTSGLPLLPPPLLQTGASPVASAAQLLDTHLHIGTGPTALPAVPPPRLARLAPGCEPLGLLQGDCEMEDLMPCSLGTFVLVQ
Chain of kinases (KINOMEscan panel) (Homo sapiens, UniProt P11309) (P11309 whole entry): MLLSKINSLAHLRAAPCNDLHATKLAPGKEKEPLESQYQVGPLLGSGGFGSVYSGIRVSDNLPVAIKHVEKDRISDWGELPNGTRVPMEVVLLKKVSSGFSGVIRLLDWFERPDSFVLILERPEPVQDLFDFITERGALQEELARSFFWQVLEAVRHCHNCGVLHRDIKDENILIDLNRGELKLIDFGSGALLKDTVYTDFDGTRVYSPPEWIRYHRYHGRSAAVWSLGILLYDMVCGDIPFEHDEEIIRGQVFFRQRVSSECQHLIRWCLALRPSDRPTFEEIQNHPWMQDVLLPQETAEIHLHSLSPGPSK

## Cc1cccc(-c2nc(Nc3ccncc3)c3ccccc3n2)n1 [NK215]
[1]
  KINOMEscan STK16: 7
[2]
  KINOMEscan CDK14: 0
[3]
  KINOMEscan PIM1: 0
[4]
  KINOMEscan SIK1: 4
[5]
  KINOMEscan CDKL1: 47
[6]
  KINOMEscan DMPK: 2
[7]
  KINOMEscan MAP3K1: 0
[8]
  KINOMEscan MYLK: 12
[9]
  KINOMEscan ANKK1: 0
[10]
  KINOMEscan COQ8A: 27
[11]
  KINOMEscan MARK1: 0
